Measured values as given in US8796288B2, “Anhydrous crystalline forms of N-[1-(2-ethoxyethyl)-5-(N-ethyl-N-methylamino)-7-(4-methylpyridin-2-yl-amino)-1H-pyrazolo[4,3-d]pyrimidine-3-carbonyl]methanesulfonamide” (Pfizer Inc., priority 2005, dated 2014).
“Also recorded” adds a separate entry of the source. Values belong to the compound of their own block, whether it stands above or below them.

Assays:
[1] = Stability of Form A and Form B (slurry conversion in methanol with PXRD, DSC comparison); type: physicochemical
Protocol: Form A, Form B and Form C were each analyzed using differential scanning calorimetry (DSC). A TA Instruments Q1000 differential scanning calorimeter was used to perform each analysis. Each sample was heated from 25 to 300° C. at 20° C. per minute in an aluminium pan with the lid laid on top, with a nitrogen purge gas. The temperature of the melting endothermic peak was reported as the melting point.
Approximately 25 mg of Form A (see Example 3) was slurried at room temperature with 1 ml of methanol. […] A small sample was removed from the slurry.
The thermodynamically stabilities of Form A and Form B were compared as described below. First, approximately 25 mg of Form A was slurried in approximately 1 ml of methanol. […] A small sample was removed from the slurry.

[2] = Stability of Form B and Form C (bridging slurry studies, PXRD analysis); type: physicochemical
Protocol: Bridging studies were performed in the following solvent systems to determine the relative thermodynamic stabilities of Form B and Form C: (1) THF/H2O (50:50 volume/volume), (2) methyl ethyl ketone (“MEK”), (3) methanol, and (4) methanol/dichloromethane (DCM) (50:50 volume/volume). The MEK study was performed at room temperature while the studies with the other three solvent systems were performed at both 40° C. and 60° C. In each study a suspension of Form B in the appropriate solvent system was prepared. Approximately 10 mg of Form C was then added to each suspension. The suspensions were then allowed to slurry at the appropriate temperature for a specific period of time. The solvent system, temperature of the solvent system, and period of time over which the suspension was allowed to slurry are set forth below for each study: • (1) Study A: Slurried for 3 days in MEK at room temperature; • (2) Study B: Slurried for 3 days in THF/H2O (50:50) at 40° C.; • (3) Study C: Slurried for 3 days in THF/H2O (50:50) at 60° C.; • (4) Study D: Slurried for 21 days in Methanol at 40° C.; • (5) Study E: Slurried for 21 days in Methanol at 60° C.; • (6) Study F: Slurried for 5 days in Methanol/DCM at 40° C.; and • (7) Study G: Slurried for 21 days in Methanol/DCM at 60° C.
At the end of the specified time period, a sample was removed from each slurry and analyzed by PXRD. […]

crystalline form found by PXRD after slurrying ([1]; approximately 25 mg slurried in approximately 1 ml of methanol): Form B
Compound: CCOCCn1nc(C(=O)NS(C)(=O)=O)c2nc(N(C)CC)nc(Nc3cc(C)ccn3)c21 [Form A, N-[1-(2-ethoxyethyl)-5-(N-ethyl-N-methylamino)-7-(4-methylpyridin-2-yl-amino)-1H-pyrazolo[4,3-d]pyrimidine-3-carbonyl]methanesulfonamide]

Compound: CCOCCn1nc(C(=O)NS(C)(=O)=O)c2nc(N(C)CC)nc(Nc3cc(C)ccn3)c21 [Form B, N-[1-(2-ethoxyethyl)-5-(N-ethyl-N-methylamino)-7-(4-methylpyridin-2-yl-amino)-1H-pyrazolo[4,3-d]pyrimidine-3-carbonyl]methanesulfonamide]
relative thermodynamic stability of Form A and Form B ([1]; from slurry conversion analysis and DSC analysis, ambient as well as elevated temperatures): more thermodynamically stable than Form A
relative thermodynamic stability of Form B and Form C above the crossover point ([2]; temperatures above the crossover point): more thermodynamically stable than Form C; also recorded: most thermodynamically stable form

Compound: CCOCCn1nc(C(=O)NS(C)(=O)=O)c2nc(N(C)CC)nc(Nc3cc(C)ccn3)c21 [Form C, N-[1-(2-ethoxyethyl)-5-(N-ethyl-N-methylamino)-7-(4-methylpyridin-2-yl-amino)-1H-pyrazolo[4,3-d]pyrimidine-3-carbonyl]methanesulfonamide]
relative thermodynamic stability of Form B and Form C below the crossover point ([2]; temperatures below the crossover point (including ambient)): more thermodynamically stable than Form B; also recorded: most thermodynamically stable form
